Data: ChEMBL document CHEMBL1137358, “Synthetic inhibitors of cytochrome P-450 2A6: inhibitory activity, difference spectra, mechanism of inhibition, and protein cocrystallization” (J Med Chem, 2006)

Assays:
[1] = tested on: CYP2A6 over CYP2C19; assay: Selectivity for CYP2A6 over CYP2C19; conditions: human
[2] = molecular target: Cytochrome P450 2D6 (Homo sapiens, UniProt P10635); assay: Inhibition of human CYP2D6
[3] = tested on: CYP2A6 over CYP2D6; assay: Selectivity for CYP2A6 over CYP2D6; conditions: human
[4] = molecular target: T1, Cytochrome P450 2B6 (Homo sapiens, UniProt P20813); assay: Inhibition of human CYP2B6
T1 sequence (P20813 whole entry): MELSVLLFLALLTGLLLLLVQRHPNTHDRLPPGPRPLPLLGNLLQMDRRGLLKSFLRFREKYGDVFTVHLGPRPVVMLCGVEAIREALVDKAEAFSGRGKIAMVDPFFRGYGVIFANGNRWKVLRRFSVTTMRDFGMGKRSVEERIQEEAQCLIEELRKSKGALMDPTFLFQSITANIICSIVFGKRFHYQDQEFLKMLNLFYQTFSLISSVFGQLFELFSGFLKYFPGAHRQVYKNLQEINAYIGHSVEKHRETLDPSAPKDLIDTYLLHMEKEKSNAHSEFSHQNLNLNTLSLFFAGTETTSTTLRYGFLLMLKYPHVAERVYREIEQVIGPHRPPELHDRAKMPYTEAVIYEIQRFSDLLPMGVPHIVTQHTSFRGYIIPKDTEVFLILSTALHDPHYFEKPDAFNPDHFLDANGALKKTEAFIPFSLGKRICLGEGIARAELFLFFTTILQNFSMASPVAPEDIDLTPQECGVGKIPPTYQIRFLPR

[5] = molecular target: Cytochrome P450 2E1 (Homo sapiens, UniProt P05181); assay: Inhibition of human CYP2E1
Chain of Cytochrome P450 2E1 (P05181 whole entry): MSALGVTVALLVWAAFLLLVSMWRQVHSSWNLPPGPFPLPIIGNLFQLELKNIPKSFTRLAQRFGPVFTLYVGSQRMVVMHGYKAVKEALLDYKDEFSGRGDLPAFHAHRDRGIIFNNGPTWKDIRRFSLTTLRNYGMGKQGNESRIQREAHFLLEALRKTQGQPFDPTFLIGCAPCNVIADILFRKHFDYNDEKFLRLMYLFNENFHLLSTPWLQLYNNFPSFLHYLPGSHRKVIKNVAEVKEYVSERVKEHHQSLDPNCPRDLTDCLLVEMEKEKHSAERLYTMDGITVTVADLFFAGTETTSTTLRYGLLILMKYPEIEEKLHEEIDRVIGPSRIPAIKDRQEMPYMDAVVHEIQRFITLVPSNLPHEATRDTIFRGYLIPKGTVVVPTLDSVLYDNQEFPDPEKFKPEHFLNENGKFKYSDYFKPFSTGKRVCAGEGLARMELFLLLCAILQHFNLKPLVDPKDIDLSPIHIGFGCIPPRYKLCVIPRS

[6] = tested on: CYP2A6 over CYP2C9; assay: Selectivity for CYP2A6 over CYP2C9; conditions: human
[7] = molecular target: Cytochrome P450 3A4 (Homo sapiens, UniProt P08684); assay: Inhibition of human CYP3A4
Chain of Cytochrome P450 3A4 (P08684 whole entry): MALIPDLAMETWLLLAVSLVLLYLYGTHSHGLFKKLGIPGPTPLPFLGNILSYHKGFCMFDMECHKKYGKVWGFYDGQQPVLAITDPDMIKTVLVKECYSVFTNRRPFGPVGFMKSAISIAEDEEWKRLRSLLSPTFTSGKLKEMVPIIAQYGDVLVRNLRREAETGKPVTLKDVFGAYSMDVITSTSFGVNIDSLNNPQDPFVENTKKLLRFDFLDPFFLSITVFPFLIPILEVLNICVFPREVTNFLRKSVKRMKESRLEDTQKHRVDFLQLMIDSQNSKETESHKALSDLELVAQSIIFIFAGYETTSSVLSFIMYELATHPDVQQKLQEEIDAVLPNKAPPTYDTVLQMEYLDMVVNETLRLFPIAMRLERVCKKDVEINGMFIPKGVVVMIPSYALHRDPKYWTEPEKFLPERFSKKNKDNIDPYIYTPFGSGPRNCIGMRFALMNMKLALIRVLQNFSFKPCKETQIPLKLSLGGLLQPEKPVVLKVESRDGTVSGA

[8] = molecular target: Cytochrome P450 2C9 (Homo sapiens, UniProt P11712); assay: Inhibition of human CYP2C9
Chain of Cytochrome P450 2C9 (P11712 whole entry): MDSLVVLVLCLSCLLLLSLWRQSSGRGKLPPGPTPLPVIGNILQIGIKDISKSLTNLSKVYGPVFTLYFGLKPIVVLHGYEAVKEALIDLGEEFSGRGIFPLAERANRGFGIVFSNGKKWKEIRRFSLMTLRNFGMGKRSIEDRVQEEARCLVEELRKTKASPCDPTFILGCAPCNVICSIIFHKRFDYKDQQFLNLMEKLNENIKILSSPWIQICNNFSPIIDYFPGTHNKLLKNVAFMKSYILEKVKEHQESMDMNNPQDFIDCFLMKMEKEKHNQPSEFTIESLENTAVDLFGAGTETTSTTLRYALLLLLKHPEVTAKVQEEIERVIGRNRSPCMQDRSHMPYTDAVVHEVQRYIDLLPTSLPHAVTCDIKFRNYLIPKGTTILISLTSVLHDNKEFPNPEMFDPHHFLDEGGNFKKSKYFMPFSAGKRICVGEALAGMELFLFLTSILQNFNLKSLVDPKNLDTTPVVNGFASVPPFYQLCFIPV

[9] = Stability in human liver microsome
[10] = molecular target: Cytochrome P450 2C19 (Homo sapiens, UniProt P33261); assay: Inhibition of human CYP2C19
Chain of Cytochrome P450 2C19 (P33261 whole entry): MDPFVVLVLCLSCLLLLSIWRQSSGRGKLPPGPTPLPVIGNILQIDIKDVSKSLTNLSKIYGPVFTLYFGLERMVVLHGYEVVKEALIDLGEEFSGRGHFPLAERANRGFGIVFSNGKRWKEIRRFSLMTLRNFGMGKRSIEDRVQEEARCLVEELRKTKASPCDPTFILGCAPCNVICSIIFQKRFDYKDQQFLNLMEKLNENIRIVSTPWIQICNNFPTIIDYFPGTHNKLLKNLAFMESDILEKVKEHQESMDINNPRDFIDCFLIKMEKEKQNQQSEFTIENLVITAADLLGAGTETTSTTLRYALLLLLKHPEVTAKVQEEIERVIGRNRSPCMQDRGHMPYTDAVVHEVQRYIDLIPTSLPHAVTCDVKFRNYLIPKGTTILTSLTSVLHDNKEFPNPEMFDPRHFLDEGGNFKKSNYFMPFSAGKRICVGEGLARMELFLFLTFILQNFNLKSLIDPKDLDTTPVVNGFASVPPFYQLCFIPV

[11] = Stability in mouse liver microsome
[12] = molecular target: T2, Cytochrome P450 2A6 (Homo sapiens, UniProt P11509); assay: Inhibition of human CYP2A6
T2 sequence (P11509 whole entry): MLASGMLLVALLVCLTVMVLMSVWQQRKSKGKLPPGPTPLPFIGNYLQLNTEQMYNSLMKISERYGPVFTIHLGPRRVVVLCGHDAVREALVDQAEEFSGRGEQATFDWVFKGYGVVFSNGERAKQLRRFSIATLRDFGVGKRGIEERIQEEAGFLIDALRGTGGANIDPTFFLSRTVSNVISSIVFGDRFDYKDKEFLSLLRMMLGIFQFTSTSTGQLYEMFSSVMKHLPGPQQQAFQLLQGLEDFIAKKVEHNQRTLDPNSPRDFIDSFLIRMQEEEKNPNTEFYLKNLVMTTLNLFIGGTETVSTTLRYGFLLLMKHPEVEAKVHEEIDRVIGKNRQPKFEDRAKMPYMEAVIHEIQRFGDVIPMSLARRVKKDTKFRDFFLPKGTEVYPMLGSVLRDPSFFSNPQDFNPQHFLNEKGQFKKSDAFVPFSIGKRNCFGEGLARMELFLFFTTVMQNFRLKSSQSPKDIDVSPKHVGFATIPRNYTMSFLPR

[13] = tested on: CYP2A6 over CYP2B6; assay: Selectivity for CYP2A6 over CYP2B6
[14] = tested on: CYP2A6 over CYP2E1; assay: Selectivity for CYP2A6 over CYP2E1; conditions: human
[15] = tested on: CYP2A6 over CYP3A4; assay: Selectivity for CYP2A6 over CYP3A4; conditions: human

Chain of Cytochrome P450 2D6 (P10635 whole entry): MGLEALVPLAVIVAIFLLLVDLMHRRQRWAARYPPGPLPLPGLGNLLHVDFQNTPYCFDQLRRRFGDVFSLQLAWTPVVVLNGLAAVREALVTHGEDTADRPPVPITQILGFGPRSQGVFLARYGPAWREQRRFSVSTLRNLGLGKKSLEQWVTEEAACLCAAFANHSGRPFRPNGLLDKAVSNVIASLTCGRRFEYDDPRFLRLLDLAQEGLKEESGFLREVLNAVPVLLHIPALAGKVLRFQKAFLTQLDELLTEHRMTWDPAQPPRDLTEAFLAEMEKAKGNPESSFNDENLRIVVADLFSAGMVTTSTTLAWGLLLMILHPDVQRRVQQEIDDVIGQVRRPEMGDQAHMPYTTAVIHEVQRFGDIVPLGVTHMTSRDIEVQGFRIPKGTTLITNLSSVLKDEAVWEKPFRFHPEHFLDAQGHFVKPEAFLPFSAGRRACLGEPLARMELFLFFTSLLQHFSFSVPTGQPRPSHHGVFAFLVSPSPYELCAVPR

Row | Ki [2] | Ki [4] | Ki [5] | Ki [7] | Ki [8] | half-life ([9]; liver microsomes) | Ki [10] | half-life ([11]; liver microsomes) | Ki [12] | half-life ([9]; microsomes) | half-life ([11]; microsomes) | Compound | selectivity ratio [1] | selectivity ratio [3] | selectivity ratio [6] | selectivity ratio [13] | selectivity ratio [14] | selectivity ratio [15]
1 | 14.8 µM | 3.8 µM | 0.8 µM | 63 µM | 0.9 µM | – | 41 µM | – | 0.6 µM | 37 min | 22 min | NCc1ccc(-c2ccccc2)o1 | 6.8 | 24.6 | 1.5 | 6.4 | 1.3 | 105
2 | > 400 µM | 0.6 µM | 0.04 µM | 95.5 µM | 0.5 µM | – | 0.9 µM | – | 0.6 µM | 84 min | 41 min | NCc1ccc(-c2ccccc2)s1 | 1.4 | > 333 | 0.8 | 1.1 | 0.1 | 159
3 | > 400 µM | 5.1 µM | > 400 µM | > 400 µM | > 400 µM | – | > 400 µM | – | 6.2 µM | 74 min | 37 min | Cc1cscc1-c1ccccc1 | 32.3 | 60.6 | 33.9 | 4.2 | 2.9 | > 400
4 | > 400 µM | 33.7 µM | 38.9 µM | > 400 µM | 14.5 µM | 401 min | 27.5 µM | 385 min | 0.4 µM | – | – | NCc1cc(-c2cccnc2)no1 | 74.3 | > 541 | 39.1 | 91.1 | 105 | > 541
5 | 165 µM | 71.5 µM | 5.2 µM | > 400 µM | 172 µM | 99 min | 109 µM | 93 min | 12.8 µM | – | – | c1cncc(-c2cc[nH]n2)c1 | 8.5 | 12.9 | 13.4 | 5.6 | 0.4 | > 15.6
6 | 84.5 µM | – | 20.1 µM | 29.4 µM | – | – | – | – | – | 39 min | 60 min | NCc1ccc(-c2cccnc2)s1 | – | – | – | – | – | –
7 | 29.8 µM | 33.2 µM | > 400 µM | > 400 µM | 24.2 µM | 238 min | 41.4 µM | 169 min | 0.3 µM | – | – | NCc1cc(-c2cccnc2)n[nH]1 | 143 | 103 | 83.4 | 114 | > 690 | > 690
8 | > 400 µM | 14 µM | 9.7 µM | > 400 µM | 112 µM | 315 min | 107 µM | 92 min | 3.3 µM | – | – | c1ccc(-c2ccsc2)cc1 | > 32.3 | > 32.3 | > 32.3 | 0.8 | > 32.3 | > 32.3

Row | Compound | Ki [2] | Ki [4] | Ki [5] | Ki [7] | Ki [8] | half-life ([9]; liver microsomes) | Ki [10] | half-life ([11]; liver microsomes) | Ki [12] | half-life ([9]; microsomes) | half-life ([11]; microsomes) | selectivity ratio [1] | selectivity ratio [3] | selectivity ratio [6] | selectivity ratio [13] | selectivity ratio [14] | selectivity ratio [15]
9 | NCc1ccc(-c2cccnc2)o1 | 5.7 µM | 95.5 µM | 86 µM | 23.6 µM | 5.9 µM | 37 min | 11 µM | 37 min | – | – | – | 81 | 42 | 43 | – | – | –
10 | Cc1ccsc1-c1cccnc1 | – | – | – | – | – | 32 min | – | 41 min | – | – | – | – | – | – | – | – | –
11 | Cc1csc(-c2cccnc2)n1 | > 400 µM | 43.5 µM | 9.6 µM | 22.9 µM | 51.5 µM | – | > 400 µM | – | 4.1 µM | 36 min | 49 min | > 32.3 | > 32.3 | 12.6 | 10.6 | 2.3 | 5.6
